Entries after “also recorded” stand apart in the source; their conditions may differ.
Tests used:
[1] = tested on: aged (24-month-old) C57BL/6 mice; experiment: Grid hang test (forearm grip strength); type: in vivo; details: after 64 days of treatment, vs vehicle
Method: Four 20-gallon plastic buckets were used to suspend a three-by-three-foot metal grid suspended approximately three feet from the ground. The ground just below the grid was padded with soft material. The metal grid was placed on its side so that it was perpendicular to the buckets' surface. […] Once the grid was completely parallel with the horizontal plane (i.e. the floor), the timer was started. The timer was stopped when the mouse fell onto the padded floor and the time to fall was recorded and graphed.
(§1) To determine whether increased wheel activity was accompanied by an increase in muscle strength, near the end of the frailty study the mice were subjected to a grid hang test, which measures forearm grip strength. […] Average latency to fall increased in the BGE-105-treated mice (p=0.04, Mann-Whitney U test) (FIGS. 3B and 3C). Thus, the increase in running activity observed in BGE-105-treated mice were accompanied by improved forearm grip strength.

[2] = tested on: aged (24-month-old) C57BL/6 mice; experiment: Tissue wet weight and body weight at end of frailty study; type: in vivo; details: vs vehicle
Method: The animals were housed with access to voluntary running wheels that wirelessly transmit running data to a computer for analysis. Voluntary running wheel activity levels were measured daily, and body weights were measured every 2 weeks.
as §1

phosphorylation of Akt = experiment: Western blot of Akt phosphorylation in rat tibialis anterior; type: in vivo; details: rats
Description: (§2) Administration of an apelin receptor agonist can induce the phosphorylation and activation of AMPK in heart tissue. Tissue samples were lysed using T-PER tissue protein extraction reagent (Thermo Fisher Scientific #78510) containing EDTA and protease/phosphatase inhibitors on the Omni Bead Ruptor 12 Homogenizer. Total protein was extracted then quantified using Pierce™ BCA Protein Assay Kit. Loaded equal amounts of total protein per lane on a 4-12% SDS-PAGE gel and transferred to PVDF membrane. Membranes were blocked and blotted with anti-phospho-AMPKα-Thr172 (Cell Signaling Technology, CST #2535), total-AMPKα (CST #2532), anti-phospho-Akt-SeR^473 (CST #4060), total-Akt (CST #4685), anti-phospho-ERK-1/2-Thr202/Tyr204 of Erk1 and Thr185/Tyr187 of Erk2 (CST #4370), total-ERK-1/2 (CST #9107) or anti-APLNR receptor (abcam, ab214369) antibodies. Band intensities were normalized to loading control anti-β-Actin (CST #3700) or anti-GAPDH (abcam, ab181602) antibodies. Immunoreactive proteins were detected using SuperSignal™ West Femto Substrate (Thermo Fisher Scientific #34095) and quantified by Image Lab™ software (Bio-Rad Laboratories, Inc.).
(§3) The difference between tissues was conserved among rodent species: In rats, as in mice, apelin receptor levels in rat tissue were 2-fold higher in heart than in soleus, FIGS. 5A-5B. […]

apelin receptor [3] = experiment: Apelin receptor protein levels in rat TA after chronic dosing; type: in vivo; details: rats, 5 consecutive days oral, 50 mg/kg QD and 200 mg/kg BID
Description: as §2, §3

[4] = tested on: Pax7, MyoD, MyoG, Myf5, MyHC3, and MyHC8; experiment: CTX-induced muscle injury: transcript levels of regeneration genes; type: in vivo, mice
Method: Impairment of muscle regeneration can contribute to age-related muscle weakness. This is particularly true in aged individuals who engage in physical activity. Exercise-induced muscle hypertrophy is linked to the capacity of muscle stem cells to be activated and promote regeneration. […] Mice were i.p injected with buprenorphine (Centravet, 0.1 mg/kg) 30 minutes before injury and the day after. The day of the injury, mice were anesthetized with isoflurane inhalation and hindlimbs were shaved. Then, 10 μM of cardiotoxin (CTX, Latoxan, #L8102) was injected through two injections of 25 μl into the left tibialis muscle and two injections of 50 μl into the left gastrocnemius muscle, using a 22-gauge needle (Hamilton). Mice were euthanized 3 and 7 days after injury by cervical dislocation, muscles (PBS- and CTX-injected) were cut in two parts, one being snap frozen into liquid nitrogen for total RNA extraction and the other part being embedded into OCT, frozen in isopentane cooled with liquid nitrogen for histological analysis.

79-HMC = experiment: Proliferation of immortalized human muscle cells, older donor; type: cell-based; details: for cell proliferation (measured at day 4): older subject cells
Method: Immortalized human cells from male donors (25-HMC) […] (79-HMC) are grown from the proliferation stage until they become 80% confluent, differentiate, and become myotubes. […] Early proliferation markers (Pax7, Myf5, MyoD, and MyoG were assessed via RT-PCR (FIG. 8D to 8K)

apelin receptor [5] = experiment: Apelin receptor levels after one month of BGE-105 in immobilized aged mice; type: in vivo; details: after one month of treatment at 50 mg/kg BID
Method: After 3 weeks of treatment following casting, mice were euthanized 1 hour after the final ZT1 dose, and tissues isolated, weighed, then flash frozen in liquid nitrogen for subsequent western blot analysis.

rats = details: cited from earlier work
[6] = gastrocnemius, aged mice, 3 or 7 days, apelin 0.5 μmol/kg/day, BGE-105 50 and 200 mg/kg/day
[7] = gastrocnemius, young mice, 3 or 7 days, apelin 0.5 μmol/kg/day, BGE-105 50 and 200 mg/kg/day
[8] = tibialis anterior, aged mice, 7 days, apelin 0.5 μmol/kg/day, BGE-105 50 and 200 mg/kg/day
[9] = tibialis, young mice, 3 or 7 days, apelin 0.5 μmol/kg/day, BGE-105 50 and 200 mg/kg/day

With `COc1cccc(OC)c1-n1c(NS(=O)(=O)[C@@H](C)[C@H](C)c2ncc(C)cn2)nnc1-c1cncc(C)c1` [BGE-105, (2S,3R)—N-(4-(2,6-dimethoxyphenyl)-5-(5-methyl-3-pyridinyl)-4H-1,2,4-triazol-3-yl)-3-(5-methyl-2-pyrimidinyl)-2-butanesulfonamide] the “latency to fall in grid hang test (grip strength)” value [1] was “statistically significant improvement in grip strength; also recorded: increase in the latency to fall; also recorded: increased”, the body weight [2] was “the increase was not significant” and the “tissue wet weight, gastrocnemius” value [2] was “trend toward higher tissue wet weight”. The “tissue wet weight, heart” value [2] was “no difference”, the “tissue wet weight, quadriceps” value [2] was “trend toward higher tissue wet weight” and the “tissue wet weight, tibialis anterior (TA)” value [2] was “significantly higher tissue wet weight”. For the same compound, the “phosphorylation of Akt in TA” value (phosphorylation of Akt; oral 50 mg/kg BID, 5 consecutive days) was “strongest response”, the “phosphorylation of Akt in TA” value (phosphorylation of Akt; oral dosing 5 consecutive days, across doses) was “dose-dependent manner” and the “apelin receptor levels in the TA” value (apelin receptor [3]) was “modest but non-significant decrease”. The “expression levels of genes involved in muscle regeneration (Pax7, MyoD, MyoG, Myf5, MyHC3, MyHC8)” value ([4]; aged (18-month-old) mice, tibialis, 7 days after CTX, vs PBS) was “significantly higher levels of several mRNA transcripts; also recorded: dramatically higher”, the “effect on regeneration gene expression in gastrocnemius compared with tibialis” value ([4]; aged mice, gastrocnemius) was “not as prominent” and the Pax7 transcript levels ([4]; gastrocnemius, aged (18-month-old) mice, 3 or 7 days, apelin 0.5 μmol/kg/day, BGE-105 50 and 200 mg/kg/day) was “no significant change”. The MyoD transcript levels ([4]; gastrocnemius, aged mice, 3 and 7 days, apelin 0.5 μmol/kg/day, BGE-105 50 and 200 mg/kg/day) was “significant increase”, the Myf5 transcript levels [4, 6] was “no significant change” and the MyoG transcript levels [4, 6] was “no significant change”. For the same compound, the MyHC8 transcript levels ([4]; gastrocnemius, aged mice, any time point, any treatment) was “does not show a change”, the MyHC3 transcript levels ([4]; gastrocnemius, aged mice, only at 7 days, BGE-105 200 mg/kg/day) was “significant increase” and the Pax7 transcript levels ([4]; gastrocnemius, young (3-month-old) mice, 3 or 7 days, apelin 0.5 μmol/kg/day, BGE-105 50 and 200 mg/kg/day) was “no change”. The Myf5 transcript levels [4, 7] was “no change”, the MyoD transcript levels [4, 7] was “no change” and the MyoG transcript levels [4, 7] was “no change”. For the same compound, the MyHC8 transcript levels ([4]; gastrocnemius, young mice, 3 days, apelin 0.5 μmol/kg/day, BGE-105 50 and 200 mg/kg/day) was “non-significant increase”, the MyHC3 transcript levels ([4]; gastrocnemius, young mice, only 3 days, BGE-105 50 mg/kg/day) was “increase” and the Pax7 transcript levels ([4]; tibialis anterior, aged (18-month-old) mice, 7 days post cardiotoxin, apelin 0.5 μmol/kg/day, BGE-105 50 and 200 mg/kg/day) was “significant increase”. For the same compound, the MyoD transcript levels ([4]; tibialis anterior, aged mice, 3 and 7 days post cardiotoxin, apelin 0.5 μmol/kg/day, BGE-105 50 and 200 mg/kg/day) was “significant increase”, the MyHC3 transcript levels [4, 8] was “significant increase” and the Myf5 transcript levels [4, 8] was “significant change”. For the same compound, the MyoG transcript levels [4, 8] was “significant increase”, the Pax7 transcript levels ([4]; tibialis, young (3-month-old) mice, 3 or 7 days, apelin 0.5 μmol/kg/day, BGE-105 50 and 200 mg/kg/day) was “no change” and the MyHC3 transcript levels [4, 9] was “no significant change”. For the same compound, the MyHC8 transcript levels [4, 9] was “no significant change”, the Myf5 transcript levels [4, 9] was “no difference” and the MyoD transcript levels [4, 9] was “no significant increase”. The MyoG transcript levels [4, 9] was “no difference”, the “effect on regeneration gene expression in young mice” value ([4]; young (3-month-old) mice) was “not as effective” and the “cell proliferation, short-term treatment” value (79-HMC; aged donor cells, day 0 to day 4 post seeding) was “significant increase of cell proliferation”. The “cell proliferation (measured at day 4)” value (79-HMC; 5 nM) was “significant increase in cell proliferation”, the “cell proliferation (measured at day 4)” value (79-HMC; 50 nM) was “increase” and the apelin receptor levels (apelin receptor [5]) was “noticeable but non-significant drop”. The cardiovascular response (rats) was “induces a cardiovascular response”.
